Data set [1] in a line: apparent partition coefficient n-octanol / phosphate buffer pH 7,4 (method of Hansch et al.). It counts as physicochemical. The following applies: n-octanol / aqueous phosphate buffer pH 7,4. From the text:
Wie oben erwähnt, zeigen die erfindungsgemässen Verbindungen grössere Stabilität und Lipophilität als bekannte Nucleotidderivate. In der nachstehenden Tabelle I sind für ausgewählte erfindungsgemässe Verbindungen die gemessenen Verteilungskoeffizienten angegeben, die wiederum ein Anzeichen für die Lipophilität der Verbindung darstellt. Tabelle I

Data set [2] is described as follows: stability in human plasma at 37°C (HPLC). It counts as in vitro ADME. The following applies: human plasma 37°C; for % N, O-Diacyl (1a): incubated 1a; for % N, O-Diacyl (1b): incubated 1b; for % N, O-Diacyl (1c): incubated 1c; for % N-Acyl (2a): incubated 2a; for % N-Acyl (2b): incubated 2b; for % N-Acyl (2c): incubated 2c. From the text: (§1) Die Stabilität ausgewählter erfindungsgemässer Verbindungen in Methanol/Wasser oder menschlichem Blutplasma wurde wie nachstehend angegeben geprüft:
Die folgenden Verbindungen wurden auf Stabilität im menschlichen Plasma geprüft:
(§2) Zunächst wurden die HPLC-Bedingungen für die Probenmessung bestimmt, d.h. eine Revers-Phasen C-18-Säule mit einem Lösungsmittelsystem mit variierenden Verhältnissen von Methanol: […] Natriumphosphat, pH 6,8.
(§3) Danach wurde die maximale UV-Absorption für jede Probe und die grösste Stabilität unter Laborbedingungen für jede Probe in Methanol:Wasser bestimmt. Danach wurde die Stabilität im menschlichen Plasma untersucht.
Das im Experiment verwendete menschliche Plasma wurde bis zur Verwendung eingefroren.
(§4) Die HPLC-Apparatur war ein Gradientsystem bestehend aus einem Modell 1601 Gradient Master, einer Constametric I Pumpe und einer Constametric III Pumpe. Weiterhin wurden ein LDC-Spectromometer III als Detektor und ein Waters 712B Wisp Autoinjektor verwendet. Allen Proben wurde eine ODS-3 RAC II, 5 µ, 15 cm x 4,0 mm ID-Säule (Whatmann, Clifton, N.J.) verwendet. Das Lösungsmittelsystem bestand aus Methanol: 0,001M NaH₂PO₄ (pH 6,8) in den folgenden Proportionen: 1b, 2b - 50:50; 1a, 2a - 43:57; 1c, 2c - 50:50.
Jede Verbindung wurde in ein konisches 15 ml Teströhrchen eingewogen und in DMSO gelöst, so dass eine Vorratslösung von 10 mg/ml erhalten wurde. Die Proben für die Standardkurve wurden durch Verdünnen der DMSO-Vorratslösung mit der mobilen Phasen wie folgt hergestellt: […]
(§5) Die chromatographischen Daten wurden mit einem Nelson 3000 Datasystem gesammelt. Peakhöhen der Kalibrierungs-Standards jeder Verbindung wurden gemessen und gegen bekannte Konzentrationen aufgetragen. Eine lineare Kurve der kleinsten Quadrate (ungewichtet) wurde berechnet und alle Probenkonzentrationen wurden aus dieser Kurve rückgerechnet. Die Resultate sind in den Tabellen II-VIII zusammengestellt. Tabelle II

Data set [3] is described as follows: stability in methanol/water (HPLC). It counts as physicochemical.
Source text: as §1, §2, §3, §4
Jede Verbindung wurde in ein konisches 15 ml Teströhrchen eingewogen und in DMSO gelöst, so dass eine Vorratslösung von 10 mg/ml erhalten wurde. Die Proben für die Standardkurve wurden durch Verdünnen der DMSO-Vorratslösung mit der mobilen Phasen wie folgt hergestellt:
as §5

Take `Nc1ccn([C@H]2C=C[C@@H](CO)O2)c(=O)n1` [2′,3′-Didehydro-2′,3′-dideoxycytidin, reference compound]: the “Scheinbarer Verteilungskoeffizient zwischen n-Octanol und Phosphatpuffer pH 7,4” value in data set [1] turned out to be 0.03.
Same read-out and setting: next, `CC(=O)OC[C@@H]1CC[C@H](n2ccc(N)nc2=O)O1` [2′,3′-Dideoxycytidin 5′-acetat]: 0.14; `Nc1ccn([C@H]2CC[C@@H](CO)O2)c(=O)n1` [2′,3′-Dideoxycytidin, reference compound]: 0.05.
Same read-out and setting: in the case of `CC(=O)Nc1ccn([C@H]2C=C[C@@H](COC(C)=O)O2)c(=O)n1` [N-Acetyl 2′,3′-didehydro-2′,3′-dideoxycytidin 5′-acetat] it was 0.39; in that of `CC(=O)Nc1ccn([C@H]2CC[C@@H](COC(C)=O)O2)c(=O)n1` [N-Acetyl 2′,3′-dideoxycytidin 5′-acetat], 0.62; in that of `CC(=O)Nc1ccn([C@H]2CC[C@@H](CO)O2)c(=O)n1` [N-Acetyl 2′,3′-dideoxycytidin], 0.22.
As for `O=C(Nc1ccn([C@H]2CC[C@@H](CO)O2)c(=O)n1)c1ccccc1` [N-Benzoyl 2′,3′-dideoxycytidin], the “Scheinbarer Verteilungskoeffizient zwischen n-Octanol und Phosphatpuffer pH 7,4” value in data set [1] was determined as 15.0.
Still for that read-out and setting: in the case of `CCCCCCCCCCCCCCCC(=O)Nc1ccn([C@H]2CC[C@@H](COC(=O)CCCCCCCCCCCCCCC)O2)c(=O)n1` [N-Palmitoyl 2′,3′-dideoxycytidin 5′-palmitoat] it was greater than 1000.
With `CCC(=O)Nc1ccn([C@H]2CC[C@@H](COC(=O)CC)O2)c(=O)n1` [Verbindung 1a, N-Propanoyl 2′,3′-dideoxycytidin 5′-propanoat], the “% N, O-Diacyl (1a)” value was 86% in data set [2] (time 0 (Tage)); 70% in data set [2] (time 0,5 (Tage)); 40% in data set [2] (time 1 (Tage)); 17% in data set [2] (time 2 (Tage)); 10% in data set [2] (time 4 (Tage)); 1% in data set [2] (time 24 (Tage)). The “Scheinbarer Verteilungskoeffizient zwischen n-Octanol und Phosphatpuffer pH 7,4” value in data set [1] amounted to 6.8. Moreover, the “% N, O-Diacyl (1a,1b,1c)” value in data set [3] (time 0 days) was 100%; in data set [3] (time 14 days) it was 43%. Moreover, the “% N-Acyl (2a,2b, 2c)” value in data set [3] (time 14 days) turned out to be 18%. In data set [3] (time 14 days), the “% O-Acyl- (3a,3b,3c)” value was 27%.
For `CC(C)C(=O)Nc1ccn([C@H]2CC[C@@H](COC(=O)C(C)C)O2)c(=O)n1` [Verbindung 1b, N-(2-Methylpropanoyl) 2′,3′-dideoxycytidin 5′-(2-methylpropanoat)], the “% N, O-Diacyl (1b)” value is recorded as 95% in data set [2] (time 0 (Tage)); 83% in data set [2] (time 0,5 (Tage)); 38% in data set [2] (time 1 (Tage)); 9% in data set [2] (time 2 (Tage)); 4% in data set [2] (time 4 (Tage)); 3% in data set [2] (time 24 (Tage)). Moreover, the “Scheinbarer Verteilungskoeffizient zwischen n-Octanol und Phosphatpuffer pH 7,4” value in data set [1] worked out at 58.0. Moreover, the “% N, O-Diacyl (1a,1b,1c)” value came out at 100% in data set [3] (time 0 days) and 73% in data set [3] (time 14 days). Moreover, the “% N-Acyl (2a,2b, 2c)” value in data set [3] (time 14 days) is given as 8%. Further, the “% O-Acyl- (3a,3b,3c)” value in data set [3] (time 14 days) is given as 17%. Moreover, the “% ddC 4” value in data set [3] (time 14 days) amounted to 2%.
With `CCCC(=O)Nc1ccn([C@H]2CC[C@@H](COC(=O)CCC)O2)c(=O)n1` [Verbindung 1c, N-Butanoyl 2′,3′-dideoxycytidin 5′-butanoat], the “% N, O-Diacyl (1c)” value in data set [2] (time 0 (Tage)) was determined as 64%; in data set [2] (time 0,5 (Tage)), 23%; in data set [2] (time 1 (Tage)) it was 10%; in data set [2] (time 2 (Tage)), 7%; in data set [2] (time 4 (Tage)), 6%; in data set [2] (time 24 (Tage)), 6%. Moreover, in data set [1], the “Scheinbarer Verteilungskoeffizient zwischen n-Octanol und Phosphatpuffer pH 7,4” value stood at 70.0. The figures for the “% N, O-Diacyl (1a,1b,1c)” value in data set [3] (time 0 days) and in data set [3] (time 14 days) were 100% and 43%, respectively. Besides, the “% N-Acyl (2a,2b, 2c)” value in data set [3] (time 14 days) is listed as 20%. Moreover, the “% O-Acyl- (3a,3b,3c)” value in data set [3] (time 14 days) is 32%. For the same compound, the “% ddC 4” value in data set [3] (time 14 days) was found to be 25%.
With `CCC(=O)Nc1ccn([C@H]2CC[C@@H](CO)O2)c(=O)n1` [Verbindung 2a, N-Propanoyl 2′,3′-dideoxycytidin], the “% N-Acyl (2a)” value in data set [2] (time 0 (Tage)) is listed as 97%; in data set [2] (time 0,5 (Tage)), 87%; in data set [2] (time 1 (Tage)), 85%; in data set [2] (time 2 (Tage)), 96%; in data set [2] (time 4 (Tage)) it was 99%; in data set [2] (time 24 (Tage)), 80%. Also, the “Scheinbarer Verteilungskoeffizient zwischen n-Octanol und Phosphatpuffer pH 7,4” value in data set [1] was determined as 0.83. The “% N-Acyl (2a,2b, 2c)” value is recorded as 100% in data set [3] (time 0 days) and 56% in data set [3] (time 14 days). In addition, the “% ddC 4” value in data set [3] (time 14 days) was found to be 28%.
Take `CC(C)C(=O)Nc1ccn([C@H]2CC[C@@H](CO)O2)c(=O)n1` [Verbindung 2b, N-(2-Methylpropanoyl) 2′,3′-dideoxycytidin]: the “% N-Acyl (2b)” value in data set [2] (time 0 (Tage)) is recorded as 83%; in data set [2] (time 0,5 (Tage)), 88%; in data set [2] (time 1 (Tage)), 61%; in data set [2] (time 2 (Tage)) it was 78%; in data set [2] (time 4 (Tage)), 89%; in data set [2] (time 24 (Tage)), 92%. For the same compound, the “Scheinbarer Verteilungskoeffizient zwischen n-Octanol und Phosphatpuffer pH 7,4” value in data set [1] turned out to be 2.38. For the same compound, the “% N-Acyl (2a,2b, 2c)” value in data set [3] (time 0 days) is recorded as 100%; in data set [3] (time 14 days), 83%. In addition, the “% O-Acyl- (3a,3b,3c)” value in data set [3] (time 14 days) is listed as 17%. Moreover, the “% ddC 4” value in data set [3] (time 14 days) was found to be 2%.
Consider `CCCC(=O)Nc1ccn([C@H]2CC[C@@H](CO)O2)c(=O)n1` [Verbindung 2c, N-Butanoyl 2′,3′-dideoxycytidin], for which the “% N-Acyl (2c)” value in data set [2] (time 0 (Tage)) is 101%; in data set [2] (time 0,5 (Tage)), 95%; in data set [2] (time 1 (Tage)), 92%; in data set [2] (time 2 (Tage)) it was 90%; in data set [2] (time 4 (Tage)), 85%; in data set [2] (time 24 (Tage)), 77%. Also, in data set [1], the “Scheinbarer Verteilungskoeffizient zwischen n-Octanol und Phosphatpuffer pH 7,4” value was 2.67. The figures for the “% N-Acyl (2a,2b, 2c)” value in data set [3] (time 0 days) and in data set [3] (time 14 days) were 100% and 76%, respectively. The “% ddC 4” value in data set [3] (time 14 days) was found to be 20%.

The record behind these values is patent publication EP0311100A2, “Derivatives of dideoxycytidine, their preparation and pharmaceutical use” (F. HOFFMANN-LA ROCHE AG, priority 1987, dated 1989).
